Results: patent US11535670B2, “Combination therapies of HDAC inhibitors and PD-L1 inhibitors” (HUYABIO International, LLC, priority 2016, dated 2022)

Columns and labels:
[1] = system: MC38 murine colon carcinoma; test: Example 2: tumor growth delay in MC38 syngeneic model, HBI-8000 alone and with PD-L1 inhibitor antibody; format: in vivo, C57BL/6 mice; conditions: HBI-8000 50 mg/kg p.o. qd×21, anti-PDL-1 5 mg/kg i.p. biwk×3
Description: In the present example, HBI-8000 was tested as monotherapy and in combination with PD-L1 inhibitor antibody at 5 mg/kg. The experiment included a vehicle-treated group and a PD-L1 inhibitor antibody monotherapy group, which served as the control groups for analysis of efficacy. Tumors were measured twice per week until the study was ended on Day 50. Each animal was euthanized when its tumor attained the endpoint tumor volume of 1000 mm^3 or on the final day of the study, whichever came first, and the time to endpoint (TTE) for each mouse was calculated. Treatment response was determined from an analysis of percent tumor growth delay (% TGD), defined as the percent increase in the median time to endpoint (TTE) for treated versus control mice; and by logrank significance of differences in survival among groups and regression responses.
Mice: Details of the animals used in this example can be found in Example 1.
Tumor Cell Culture: Details of the tumor cells used in this example can be found in Example 1.
Tumor Implantation and Measurement: Details of tumor implantation and measurement of tumor growth used in this example can be found in paragraph Example 1. […]
Statistics: Details of the statistics and software used in this study can be found in Example 1. […] Table 3.1 describes the values calculated for TTE and % TGD for each treatment group.

[2] = molecular target: T1, HDAC 8 (Homo sapiens, UniProt Q9BY41); conditions: cited from earlier work
T1 sequence (Q9BY41 1-377): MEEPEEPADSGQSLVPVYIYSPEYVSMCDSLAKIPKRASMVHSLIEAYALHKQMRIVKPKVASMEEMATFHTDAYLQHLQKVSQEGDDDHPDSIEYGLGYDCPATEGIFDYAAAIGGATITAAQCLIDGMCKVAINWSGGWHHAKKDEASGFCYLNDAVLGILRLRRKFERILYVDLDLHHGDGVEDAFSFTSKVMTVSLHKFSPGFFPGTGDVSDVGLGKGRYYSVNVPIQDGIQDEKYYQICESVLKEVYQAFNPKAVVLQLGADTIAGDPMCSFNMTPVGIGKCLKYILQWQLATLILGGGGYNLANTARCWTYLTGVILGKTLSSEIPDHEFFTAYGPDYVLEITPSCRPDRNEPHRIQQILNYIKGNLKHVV

[3] = molecular target: HDAC 1 (Homo sapiens, UniProt Q13547); conditions: cited from earlier work
[4] = molecular target: T2, HDAC 11 (Homo sapiens, UniProt Q96DB2); conditions: cited from earlier work
T2 sequence (Q96DB2 1-347): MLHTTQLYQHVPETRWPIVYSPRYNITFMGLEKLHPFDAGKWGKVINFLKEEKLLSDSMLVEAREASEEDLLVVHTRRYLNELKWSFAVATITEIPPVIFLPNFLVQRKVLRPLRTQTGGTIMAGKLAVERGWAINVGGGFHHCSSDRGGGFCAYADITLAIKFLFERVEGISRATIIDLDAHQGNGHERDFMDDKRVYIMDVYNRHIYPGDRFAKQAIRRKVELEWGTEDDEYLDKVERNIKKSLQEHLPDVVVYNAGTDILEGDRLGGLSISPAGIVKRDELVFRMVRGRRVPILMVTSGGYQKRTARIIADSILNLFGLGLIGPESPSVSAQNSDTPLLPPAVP

Chain of HDAC 1 (Q13547 whole entry): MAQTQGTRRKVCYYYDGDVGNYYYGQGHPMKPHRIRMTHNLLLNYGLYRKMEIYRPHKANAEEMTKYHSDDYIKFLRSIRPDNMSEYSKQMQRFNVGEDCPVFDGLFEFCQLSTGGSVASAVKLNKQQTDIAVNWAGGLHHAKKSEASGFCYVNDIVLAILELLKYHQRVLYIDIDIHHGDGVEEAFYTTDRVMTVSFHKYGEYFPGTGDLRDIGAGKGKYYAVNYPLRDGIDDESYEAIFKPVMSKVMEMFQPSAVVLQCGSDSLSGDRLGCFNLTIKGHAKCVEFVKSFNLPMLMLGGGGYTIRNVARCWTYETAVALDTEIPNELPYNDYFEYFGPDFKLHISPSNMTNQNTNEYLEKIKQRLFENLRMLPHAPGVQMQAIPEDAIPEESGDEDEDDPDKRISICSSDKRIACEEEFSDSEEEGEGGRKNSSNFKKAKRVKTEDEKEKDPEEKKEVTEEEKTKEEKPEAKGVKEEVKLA

Nc1cc(F)ccc1NC(=O)c1ccc(CNC(=O)/C=C/c2cccnc2)cc1 [HBI-8000, N-(2-amino-4-fluorophenyl)-4-[[[(2E)-1-oxo-3-(3-pyridinyl)-2-propen-1-yl]amino]methyl]benzamide]
Median TTE ([1]; endpoint 1000 mm^3 or Day 50): 28.4 days
% TGD ([1]; versus vehicle): 62%
activity at HDAC 8 [2]: has activity
activity at HDAC 8 compared with Entinostat ([2]; versus Entinostat): more active than Entinostat
inhibition of HDAC 1 [3]: low nanomolar concentrations
activity at HDAC 1 compared with Entinostat ([3]; versus Entinostat): more active than Entinostat
activity at HDAC 11 [4]: has activity
activity at HDAC 11 compared with Entinostat ([4]; versus Entinostat): more active than Entinostat
